Laboratory results reported in patent US10864202B2, “Inhibitors of lysine specific demethylase-1” (CELGENE QUANTICEL RESEARCH, INC., priority 2014, dated 2020).

Experiments:
[1] = biological target: human LSD1 (Homo sapiens (Human), UniProt O60341); assay: In vitro enzyme inhibition assay LSD-1 (TR-FRET); assay type: biochemical; settings: full-length human LSD1, H3K4me1-biotin peptide
Procedure: This assay determines the ability of a test compound to inhibit LSD1 demethylase activity.
The enzymatic assay of LSD1 activity is based on Time Resolved-Fluorescence Resonance Energy Transfer (TR-FRET) detection.
The ability of the compounds disclosed herein to inhibit LSD1 activity was quantified and the respective IC50 value was determined.

[2] = system: THP-1 (AML) cells; assay: LSD1 CD11b cellular assay (flow cytometry); assay type: cell-based; settings: Homo sapiens, 96 h; CD11b expression in THP-1 cells, 4 days incubation
Procedure: To analyze LSD1 inhibitor efficacy in cells, a CD11b flow cytometry assay was performed. LSD1 inhibition induces CD11b expression in THP-1 (AML) cells which can be measured by flow cytometry. […] LSD1 test compounds were serially diluted in DMSO. The dilutions were added to each well accordingly to a final concentration of 0.2% DMSO. The cells were incubated at 37 degrees Celsius in 5% CO2 for 4 days. 250 μL of each well was transferred to a well in a 96 well round bottom plate. The plate was centrifuged at 1200 rpm at 4 degrees Celsius in a Beckman Coulter Alegra 6KR centrifuge for 5 minutes. The media was removed leaving the cells at the bottom of the wells. The cells were washed in 100 μL cold HBSS (Hank's Balanced Salt Solution) plus 2% BSA (Bovine Serum Albumin) solution and centrifuged at 1200 rpm at 4 degrees Celsius for 5 minutes. The wash was removed. […] The cells were centrifuged and washed two times in 100 μl HBSS plus 2% BSA. After the final spin the cells were resuspended in 100 μL HBSS plus 2% BSA containing 1 ug/mL DAPI (4′,6-diamidino-2-phenylindole). The cells were then analyzed by flow cytometry in a BD FACSAria machine. Cells were analyzed for CD11b expression. The percent of CD11b expressing cells for each inhibitor concentration was used to determine an IC50 curve for each compound analyzed.

Row | SMILES | IC50 [1] | IC50 [2]
1 | Cc1ccc(-c2cnc(NCC3CCCNC3)nc2-c2ccc(C#N)cc2)cc1 (racemic) [Example 31, (±)-4-5-(4-methylphenyl)-2-[(piperidin-3-ylmethyl)amino]pyrimidin-4-yl]benzonitrile] | < 100 nM | –
2 | Cc1ccc(-c2cnc(NCC3CNCCO3)nc2-c2ccc(C#N)cc2)cc1 (racemic) [Example 33, (±)-4-[5-(4-methylphenyl)-2-[(morpholin-2-ylmethyl)amino]pyrimidin-4-yl]benzonitrile] | < 100 nM | –
3 | N#Cc1ccc(-c2cc3c(ccn3C[C@H]3CCNC3)nc2Cl)cc1 [Example 4] | 100 to 1000 nM | –
4 | N#Cc1ccc(-c2cc3c(ccn3CC3(F)CCNC3)nc2N2CCOCC2)cc1 (stereo not shown) [Example 8, 4-[1-[(3-fluoropyrrolidin-3-yl)methyl]-5-morpholin-4-ylpyrrolo[3,2-b]pyridin-6-yl]benzonitrile] | 100 to 1000 nM | –
5 | N#Cc1ccc(-c2nc(NC[C@H]3CCNC3)ncc2Cl)cc1 [Example 17, 4-(5-chloro-2-{[(3S)-pyrrolidin-3-ylmethyl]amino}pyrimidin-4-yl)benzonitrile] | 100 to 1000 nM | –
6 | Cc1ccc(-c2cnc(N[C@@H]3C[C@H]4CNC[C@H]4C3)nc2-c2ccc(C#N)cc2)cc1 [Example 27] | 100 to 1000 nM | –
7 | Cc1ccc(-c2cnc(N3CC4CNCC(C3)O4)nc2-c2ccc(C#N)cc2)cc1 [Example 41, 4-[5-(4-methylphenyl)-2-{9-oxa-3,7-diazabicyclo[3.3.1]nonan-3-yl}pyrimidin4-yl]benzonitrile] | 100 to 1000 nM | –

More lines, now with the values ahead:

Row | IC50 [1] | IC50 [2] | SMILES
8 | 100 to 1000 nM | – | N#Cc1ccc(-c2cc3c(ccn3C[C@@H]3CCNC3)nc2N2CCOCC2)cc1 [Example 6]
9 | – | 100 to 1000 nM | N#Cc1ccc(-c2nc(NCC3CCNC3)ncc2C#CC2CC2)cc1 (stereo not shown) [Example 26]
10 | 100 to 1000 nM | – | N#Cc1ccc(-c2nc(N3CC4CNCC(C3)O4)ncc2-c2ccc(F)cc2)cc1 [Example 42, 4-[5-(4-fluorophenyl)-2-{9-oxa-3,7-diazabicyclo[3.3.1]nonan-3-yl}pyrimidin-4-yl]benzonitrile]
